According to PMC11513842, “Development of an orally bioavailable CDK12/13 degrader and induction of synthetic lethality with AKT pathway inhibition” (Cell Reports Medicine, 2024):
Read-outs that look alike come from different tables or passages of the source.

Tests used:
VCaP cells = assay: Cell viability assay (CellTiter-Glo, 5 days); assay type: cell-based, human; conditions: Homo sapiens, VCaP
Protocol: (§1) Cells were seeded in 96-well plates and incubated at 37°C with 5% CO2 overnight. A series of compound dilutions were added into the cells. After 5 days incubation, cell proliferation was tested using the CellTiter-Glo assay (Promega) according to the manufacturer’s protocol. Luminescence was measured using the Infinite M1000 Pro plate reader (Tecan). Data analysis was conducted using GraphPad Prism software.

22RV1 = assay: Cell viability assay (CellTiter-Glo, 5 days); assay type: cell-based; conditions: Homo sapiens
Protocol: as §1

BPH-1 = assay: Cell viability assay (CellTiter-Glo, 5 days); assay type: cell-based; conditions: Homo sapiens; BPH-1, dose-response curve, Figure 3A
Protocol: as §1

CWR22RV1 = assay: Cell viability assay (CellTiter-Glo, 5 days); assay type: cell-based; conditions: Homo sapiens, 120 h; CWR22RV1, 5 days of treatment, Figure 1F
Protocol: as §1

DU145 = assay: Cell viability assay (CellTiter-Glo, 5 days); assay type: cell-based; conditions: Homo sapiens, DU-145, 120 h; DU145, 5 days of treatment, Figure 1F
Protocol: as §1

LAPC4 = assay: Cell viability assay (CellTiter-Glo, 5 days); assay type: cell-based; conditions: Homo sapiens
Protocol: as §1

MCF10A = assay: Cell viability assay (CellTiter-Glo, 5 days); assay type: cell-based; conditions: Homo sapiens, MCF-10A, 120 h, 5 days of treatment, Figure 1F
Protocol: as §1

MCF12A = assay: Cell viability assay (CellTiter-Glo, 5 days); assay type: cell-based; conditions: Homo sapiens, MCF-12A, 120 h, 5 days of treatment, Figure 1F
Protocol: as §1

MCF7 = assay: Cell viability assay (CellTiter-Glo, 5 days); assay type: cell-based; conditions: Homo sapiens, 120 h; MCF7, 5 days of treatment, Figure 1F
Protocol: as §1

MDA-MB-468 = assay: Cell viability assay (CellTiter-Glo, 5 days); assay type: cell-based; conditions: Homo sapiens, 120 h; MDA-MB-468, 5 days of treatment, Figure 1F
Protocol: as §1

MFM223 = assay: Cell viability assay (CellTiter-Glo, 5 days); assay type: cell-based; conditions: Homo sapiens, MFM-223, 120 h; MFM223, 5 days of treatment, Figure 1F
Protocol: as §1

PC3 = assay: Cell viability assay (CellTiter-Glo, 5 days); assay type: cell-based; conditions: Homo sapiens, PC-3, 120 h; PC3, 5 days of treatment, Figure 1F
Protocol: as §1

PNT2 = assay: Cell viability assay (CellTiter-Glo, 5 days); assay type: cell-based; conditions: Homo sapiens, 120 h; PNT2, 5 days of treatment, Figure 1F
Protocol: as §1

PrEC = assay: Cell viability assay (CellTiter-Glo, 5 days); assay type: cell-based; conditions: Homo sapiens, 120 h, 5 days of treatment, Figure 1F
Protocol: as §1

RWPE1 = assay: Cell viability assay (CellTiter-Glo, 5 days); assay type: cell-based; conditions: Homo sapiens, RWPE-1; RWPE, dose-response curve, Figure 3A
Protocol: as §1

SK-BR-3 = assay: Cell viability assay (CellTiter-Glo, 5 days); assay type: cell-based; conditions: Homo sapiens, 120 h; SK-BR-3, 5 days of treatment, Figure 1F
Protocol: as §1

WPMY-1 = assay: Cell viability assay (CellTiter-Glo, 5 days); assay type: cell-based; conditions: Homo sapiens, 120 h; WPMY-1, 5 days of treatment, Figure 1F
Protocol: as §1

[1] = tested on: androgen receptor (AR)-positive prostate and breast cancer cells; assay: Cell viability screening, panel of 155 normal and cancer cell lines; assay type: cell-based; conditions: Homo sapiens, 120 h, 5 days, Figure 1G
Protocol: as §1

[2] = tested on: normal and non-neoplastic cells; assay: as above; assay type: cell-based; conditions: Homo sapiens, 120 h, 5 days, Figure 1G
Protocol: as §1

[3] = Body weight of treated animals in tumor models; assay type: in vivo, mouse; conditions: all tumor models (castrated VCaP, WA74 PDX, PC310 PDX), i.v. 30 mg/kg
Protocol: Six-week-old male CB17SCID mice obtained from Charles River (Stock # 236), were used to establish subcutaneous tumors on both dorsal flanks. Tumor dimensions were measured biweekly using digital calipers, applying the formula (π/6) (L × W^2), where L and W represent tumor length and width, respectively. At the study conclusion, mice were euthanized, and tumors were excised and weighed. The University of Michigan Institutional Animal Care and Use Committee (IACUC) approved all in vivo studies.
For the VCaP castration-resistant tumor model, 3×10^6 VCaP cells were subcutaneously injected into both dorsal flanks of mice using a serum-free medium mixed with 50% Matrigel (BD Biosciences). Upon tumors reaching palpable size (∼200 mm^3), animals underwent castration. When tumors regrew to their pre-castration size, mice were randomized for treatment with 30 mg/kg YJ9069 or vehicle via intravenous injection or 100 mg/kg YJ1206 or vehicle, with or without 15 mg/kg uprosertib by oral gavage. Treatments were administered three times weekly for three to four weeks.
For the 22Rv1 castration-resistant tumor model, mice underwent castration and then 12 days of recovery. Subsequently, 1 × 10^6 22Rv1 cells were subcutaneously injected into both dorsal flanks using a serum-free medium with 50% Matrigel (BD Biosciences). […]

O=C1CCC(N2C(=O)c3cccc(OCC(=O)N4CCN(c5ccc(N(C(=O)NCc6ccccc6)C6CCC(Nc7ncc8ccccc8n7)CC6)cc5)CC4)c3C2=O)C(=O)N1 (stereo not drawn) [YJ9069]
IC50 (VCaP cells; 120 h, VCaP cells, 5 days, Figure 4C, read-out: IC50): 22.2 nM
IC50 (VCaP cells; 120 h, VCaP cells, 5 days, Figure S1E, read-out: IC50): 44 nM
IC50 (VCaP cells; VCaP cell viability, linker optimization, Figure S4B, read-out: VCaP IC50): 22.9 nM
IC50 (22RV1; 120 h, 22RV1, 5 days of treatment, Figure 1F): 90.3 nM
IC50 (22RV1; 22RV1, dose-response curve, Figure 3A): 144 nM
IC50 (BPH-1): > 10000 nM
IC50 (CWR22RV1): 428 nM
IC50 (DU145): > 10000 nM
IC50 (LAPC4; 120 h, LAPC4, 5 days of treatment, Figure 1F): 152 nM
IC50 (LAPC4; LAPC4, dose-response curve, Figure 3A): 109 nM
IC50 (MCF10A): > 10000 nM
IC50 (MCF12A): > 10000 nM
IC50 (MCF7): 1740 nM
IC50 (MDA-MB-468): 678 nM
IC50 (MFM223): 44.2 nM
IC50 (PC3): 2390 nM
IC50 (PNT2): > 10000 nM
IC50 (PrEC): > 10000 nM
IC50 (RWPE1): > 10000 nM
IC50 (SK-BR-3): 1280 nM
IC50 (WPMY-1): > 10000 nM
IC50 [1]: < 500 nM
IC50 [2]: > 10000 nM
body weight loss in the treated animals [3]: less than 20%
